Assay results reported in publication PMC3265452 (PLoS Neglected Tropical Diseases, 2012).
Counter-ions that a name gives are not always drawn.

molecular target: AaDOP2 (Aedes aegypti, UniProt H6D5H2); assay: AaDOP2 antagonist screen of the LOPAC1280 library (HEK-CRELuc-Aadop2 cells, luminescence); format: cell-based; conditions: not given
Sequence (H6D5H2 1-476): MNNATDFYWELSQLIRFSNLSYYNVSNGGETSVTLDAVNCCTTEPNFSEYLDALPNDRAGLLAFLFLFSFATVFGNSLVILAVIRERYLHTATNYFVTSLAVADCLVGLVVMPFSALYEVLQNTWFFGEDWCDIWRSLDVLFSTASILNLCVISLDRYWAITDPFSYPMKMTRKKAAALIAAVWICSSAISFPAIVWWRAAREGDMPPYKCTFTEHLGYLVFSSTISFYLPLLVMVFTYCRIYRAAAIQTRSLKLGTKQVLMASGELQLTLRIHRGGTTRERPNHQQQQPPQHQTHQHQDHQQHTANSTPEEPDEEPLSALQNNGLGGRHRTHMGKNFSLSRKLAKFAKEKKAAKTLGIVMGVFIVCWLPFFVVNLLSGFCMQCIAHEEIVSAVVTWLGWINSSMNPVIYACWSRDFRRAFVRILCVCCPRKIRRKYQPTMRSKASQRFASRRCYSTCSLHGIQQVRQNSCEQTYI

Compound | Compound effect (percent receptor signaling in presence of test compound, relative lux units relative to the SCH23390 control)
CNCCCN1c2ccccc2CCc2ccccc21 [Compound 380, Desipramine hydrochloride] | 29
NC1(C(=O)O)CCc2cc(C(=O)O)ccc21 (centres unmarked) [Compound 148, AIDA] | 95
Cc1nc2ccccn2c(=O)c1CCN1CCC(C(=O)c2ccc(F)cc2)CC1 [Compound 1013, Pirenperone] | 10
N[C@H](C(=O)O)c1cc(O)cc(O)c1 [Compound 377, (S)-3,5-Dihydroxyphenylglycine] | 93
CC(C)c1ccc2c(c1)c(SC(C)(C)C)c(CC(C)(C)C(=O)O)n2Cc1ccc(Cl)cc1 [Compound 750, MK-886] | 65
NCCCCCC(=O)O [Compound 89, 6-Aminohexanoic acid] | 120
Br.C=CCN1CCc2cccc3c2[C@H]1Cc1ccc(O)c(O)c1-3 [Compound 441, R(-)-N-Allylnorapomorphine hydrobromide] | 87
[Cl-].[Li+] [Compound 589, Lithium Chloride] | 86
CCC(=O)N1CCN(C(=O)c2ccccc2)CC1 [Compound 394, DM 235] | 101
Cn1c(=O)c2[nH]c(-c3ccc(S(=O)(=O)O)cc3)nc2n(C)c1=O [Compound 118, 8-(p-Sulfophenyl)theophylline] | 98
COC(=O)C1=C(C)NC(C)=C([N+](=O)[O-])C1c1ccccc1C(F)(F)F (racemic) [Compound 203, (±)-Bay K 8644] | 73
c1ccc2c(c1)[I+]c1ccccc1-2 [Compound 373, Diphenyleneiodonium chloride] | 36
O=C(O)c1cccnc1C(=O)O [Compound 1027, Quinolinic acid] | 83
CCCCC/C=C\C/C=C\C/C=C\C/C=C\CCCC(=O)NCC(=O)O [Compound 32, N-arachidonylglycine] | 116
O=C(CCNNC(=O)c1ccncc1)NCc1ccccc1 [Compound 839, Nialamide] | 87
NCCCC(=O)O [Compound 33, GABA] | 102
CN1C2CCC1CC(OC(c1ccc(F)cc1)c1ccc(F)cc1)C2.Cl (stereo not drawn) [Compound 468, 4',4''-Difluor-3alpha-(diphenylmethoxy)tropane hydrochloride] | 123
NS(=O)(=O)c1cc(C(=O)O)c(NCc2ccco2)cc1Cl [Compound 518, Furosemide] | 129
MHPG piperazine [Compound 577] | 104
CCN(CC)CCOC(=O)c1ccc(N)cc1 [Compound 1001, Procaine hydrochloride] | 96
COC(=O)C(C)(N)Cc1ccc(O)cc1.Cl (racemic) [Compound 759, alpha-Methyl-DL-tyrosine methyl ester hydrochloride] | 101
CN1[C@@H]2CC[C@H]1C[C@@H](OC(=O)c1cc(Cl)cc(Cl)c1)C2 [Compound 1211, 3-Tropanyl-3,5-dichlorobenzoate] | 97

Compound | Compound effect (percent receptor signaling in presence of test compound, relative lux units relative to the SCH23390 control)
R-(-)-Desmethyldeprenyl hydrochloride [Compound 407] | 90
COc1ccc(CNC(=O)/C=C/c2ccc3[nH]cc(CCN(C)C)c3c2)cc1 [Compound 71, GR 4661] | 114
COC(=O)[C@H]1[C@H]2C[C@@H]3c4[nH]c5cc(OC)ccc5c4CCN3C[C@H]2C[C@@H](OC(=O)c2cc(OC)c(OC)c(OC)c2)[C@@H]1OC [Compound 24, Reserpine] | 113
CN(N=O)c1ccc(O)c(O)c1 [Compound 808, Me-3,4-dephostatin] | 101
N[C@@H](CC(=O)O)C(=O)O [Compound 102, L-Aspartic acid] | 106
Cc1ccccc1/C=C/C1=NCCN1 [Compound 783, Metrazoline oxalate] | 91
Cl.O=c1[nH]oc2c1CCNC2 [Compound 1220, THIP hydrochloride] | 95
NC(=O)c1ncn([C@@H]2O[C@H](CO)[C@@H](O)[C@H]2O)n1 [Compound 1059, Ribavirin] | 119
COc1ccc(/C=C/C(=O)Nc2ccccc2C(=O)O)cc1OC [Compound 1144, Tranilast] | 73
O=S(=O)(NCCNC/C=C/c1ccc(Br)cc1)c1cccc2cnccc12 [Compound 158, H-89] | 46
CC(=O)O[C@H]1C(=O)[C@@]2(C)[C@H]([C@H](OC(=O)c3ccccc3)[C@]3(O)C[C@H](OC(=O)[C@H](O)[C@@H](NC(=O)c4ccccc4)c4ccccc4)C(C)=C1C3(C)C)[C@]1(OC(C)=O)CO[C@@H]1C[C@@H]2O [Compound 1201, Taxol] | 84
C[C@]12CCC(=O)C=C1CC[C@@H]1[C@@H]2[C@@H](O)C[C@@]2(C)[C@H]1CC[C@]2(O)C(=O)CO [Compound 588, Hydrocortisone] | 78
O=c1c(O)c(-c2ccc(O)cc2O)oc2cc(O)cc(O)c12 [Compound 766, Morin] | 117
C[N+](C)(C)CCCCCC[N+](C)(C)C [Compound 575, Hexamethonium bromide] | 91
CNC(=O)c1cc2c(cn1)[nH]c1ccccc12 [Compound 502, N-Methyl-beta-carboline-3-carboxamide] | 80
CC(COc1ccc(/C=C/c2ccccc2)cc1)[N+](C)(C)C.[I-] (stereo not drawn) [Compound 1192, N,N,N-trimethyl-1-(4-trans-stilbenoxy)-2-propylammonium iodide] | 79
O=[N+]([O-])c1cc(O)c(O)c([N+](=O)[O-])c1 [Compound 456, 3,5-Dinitrocatechol] | 95
CC1=C(C(=O)O)N2C(=O)[C@@H](NC(=O)[C@H](N)C3=CCC=CC3)[C@H]2SC1 [Compound 309, Cephradine] | 79
CCn1nc(C(=O)O)c(=O)c2cc3c(cc21)OCO3 [Compound 311, Cinoxacin] | 135
Cl.c1ccc2c(N3CCNCC3)cccc2c1 [Compound 1127, 1-(1-Naphthyl)piperazine hydrochloride] | 79
Cc1scc2c1N(C(=O)CN1CCN(C)CC1)c1ccccc1NC2=O [Compound 1225, Telenzepine dihydrochloride] | 77

same assay, conditions: 10 µM compound, 300 nM dopamine, 2 hr; hit = compound effect <20

Compound | Compound effect (percent receptor signaling in presence of test compound, relative lux units relative to the SCH23390 control)
COc1cc(=O)n(C)c2c(OCC(O)C(C)(C)O)cccc12 (centres unmarked) [Compound 524, Foliosidine] | 190%
CCCCCCCCCCCCCCCCCCOCC(COP(=O)([O-])OCC[N+](C)(C)C)OC (centres unmarked) [Compound 475, ET-18-OCH3] | 113%
Br.Br.N=C(N)NCCSSCCNC(=N)N [Compound 553, Guanidinoethyl disulfide dihydrobromide] | 105%
CC(C)NCC(O)c1cc(O)cc(O)c1.CC(C)NCC(O)c1cc(O)cc(O)c1.O=S(=O)(O)O (centres unmarked) [Compound 746, Metaproterenol hemisulfate] | 111%
NC(=O)NO [Compound 604, Hydroxyurea] | 122%
CCN(CC)CCOC(=O)c1cc(Cl)c(N)cc1OC.Cl [Compound 1140, SDZ-205,557 hydrochloride] | 96%
Cl.Cn1ccc2cc(NC(=O)Nc3cccnc3)ccc21 [Compound 135, SB 200646 hydrochloride] | 106%
CCCN1CCC[C@@H](c2cccc(C#N)c2)C1.Cl [Compound 469, S(-)-DS 121 hydrochloride] | 94%
NC(=O)C1=CN([C@@H]2O[C@H](COP(=O)(O)OP(=O)(O)OC[C@H]3O[C@@H](n4cnc5c(N)ncnc54)[C@H](OP(=O)(O)O)[C@@H]3O)[C@@H](O)[C@H]2O)C=CC1 [Compound 864, NADPH tetrasodium] | 92%

same assay, conditions: read-out: % of the SCH23390 effect (percent inhibition of receptor response relative to the SCH23390 control)

Compound | inhibition at 10 µM
Cc1nc2ccccn2c(=O)c1CCN1CCC(C(=O)c2ccc(F)cc2)CC1 [Compound 1013, Pirenperone] | 90%
